Assay results published in US20250382589A1, “SYNTHETIC OPERONS FOR THE PRODUCTION OF 2-MERCAPTOETHANE SULFONATE (COENZYME M) AND METHODS OF USING THE SAME” (priority 2024, published 2025).
“And” between values parts separate entries of the source, which are not always exact repeats. Identical values can stand only once.

Key:
[1] = tested on: E. coli K-12 ΔtauD; experiment: Oxidative stress assay after preincubation with CoM (cumene hydroperoxide)
[2] = tested on: E. coli K-12 wild-type and ΔtauD; type: cell-based, Escherichia coli; conditions: for growth when plated with 2 mM: 2 mM on plates
Protocol: Uptake of exogenous CoM by E. coli. To determine whether E. coli could catabolize CoM, wild-type (NB506) and ΔtauD (NB510) E. coli K-12 strains were tested for the ability to use CoM, cysteine, and taurine as sole sulfur source on M9 minimal medium lacking sulfur (—S) agar plates after washing to reduce nutrient carryover. E. coli strains were streaked on LB agar (1.5%) plates and used to inoculate 3 mL defined medium (Table 7) then incubated at 35° C. (16 hours, 215 rpm). Cells from 100 μL of each culture was harvested by centrifugation at 5,000×g for 3 minutes. Cells were washed three times and resuspended in 1 mL phosphate buffered saline (137 mM NaCl, 2.7 mM KCl, 10 mM Na2HPO4, 1.8 mM KH2PO4). […] Washed cultures were streaked on each agar plate and incubated at 35° C. for 63 hours before photographing.
We assessed which catabolic pathways could be involved in a hypothetical digestion of CoM by E. coli. […] If this was the case, then the antioxidant effect of CoM may be stronger in the ΔtauD strain when compared to the wild-type strain.

[3] = tested on: wild-type E. coli K12; experiment: Oxidative stress assay after preincubation with CoM (cumene hydroperoxide); type: cell-based, Escherichia coli
From the text: After having established that E. coli can use CoM as a sulfur source when grown on sulfur-free media, we tested if exogenously supplied CoM could mitigate oxidative stress. […] Protection from oxidative stress remained consistent as the concentration of CuHO2 increased (FIG. 19b). Exponential and logarithmic regression analyses were applied to the lag times of −CoM and +CoM cultures under CuHO2 stress (FIG. 33). These regression curves and their associated equations calculate that the lag time for +CoM E. coli subjected to 65 μM CuHO2 is equivalent to the lag time of −CoM E. coli subjected to ˜50 μM CuHO2.

[4] = tested on: E. coli K-12 ΔtauD; experiment: Acute oxidative stress assay (H2O2 disks, zone of clearing); type: cell-based, Escherichia coli; conditions: 0.1 mM taurine
Protocol: Acute oxidative stress assay. E. coli K-12 ΔtauD (NB510) was transformed using pET24a (vector-only control, VOC) or pCH003 (com^syn) to generate strains NB515 and NB525, respectively, and grown on LB agar (1.5%) plates containing 50 μg/mL kanamycin. Cultures were grown in defined medium with kanamycin at 37° C. (10 hours, 215 rpm) then 6 mL defined medium was inoculated (1:100). This culture was incubated until OD600=0.4-0.5 then induced using 0.1 mM IPTG. After another hour of incubation, the cultures were then split into two aliquots of 2.6 mL each, given either 0.1 mM taurine or H2O, and incubated another hour. LB plates containing 0.1 mM IPTG and 0.1 mM taurine were prepared and warmed for 15 minutes at 37° C. Cultures were normalized to 0.1 OD600 and 1 mL of culture was spread on each plate. […] Zones of clearing were measured using the ImageJ program.(38) […]
As CoM is a thiol with proposed antioxidant qualities, we tested the ability of operon 3 to protect E. coli from oxidative stress. ΔtauD K-12 E. coli were made kanamycin sensitive through the use of the pCP20 plasmid and given a T7 Polymerase using a λDE3 Lysogenization Kit (Novagen). […] Optical density (OD) measurements at 600 nm were taken every 6 minutes for 17.5 hours using a Tecan Microplate Reader. […]

[5] = tested on: E. coli K-12 ΔtauD; experiment: Chronic oxidative stress assay (cumene hydroperoxide, 96-well growth); type: cell-based, Escherichia coli; conditions: taurine supplied
Protocol: Chronic oxidative stress assay. Cultures were prepared according to the procedure outlined in the Acute Stress Assay method above. Cultures were normalized to 0.1 OD600 and 4.5 mL defined medium was inoculated (1:10) and gently mixed. Cultures (148 μL) were dispensed into each well of a sterile 96-well plate. 2 μL of either H2O or […] CuHO2 was added to designated wells.
Observed increases in the doubling times of com^syn expressing cells are expected as these cultures are being tasked with recombinantly producing enzymes which the vector-only control carrying cells are not (FIG. 8d).
As CoM is a thiol with proposed antioxidant qualities, we tested the ability of operon 3 to protect E. coli from oxidative stress. ΔtauD K-12 E. coli were made kanamycin sensitive through the use of the pCP20 plasmid and given a T7 Polymerase using a λDE3 Lysogenization Kit (Novagen). […] Expression of operon 3 was induced for 2 hours using 100 μM IPTG and cultures were incubated with 100 μM taurine for 70 minutes before being used as inoculum in a 96 well plate with cumene hydroperoxide. Optical density (OD) measurements at 600 nm were taken every 6 minutes for 17.5 hours using a Tecan Microplate Reader. A Kirby-Bauer assay was developed which examined the zone of clearing around sterile absorption disks dosed with 5 μL 2.45M hydrogen peroxide.

[6] = tested on: CoM synthesis from pyruvate and taurine; experiment: CoM biosynthesis assay in E. coli lysate; type: biochemical, Escherichia coli
Protocol: CoM biosynthesis assay. To improve expression of comF, pCH003 was transformed into BL21 E. coli along with pDB1282, graciously provided by Squire J. Booker (Penn State University).(36) This strain was grown in 25 mL defined medium overnight at 37° C. (250 rpm); this was used to inoculate 975 mL defined medium and continued growth at 37° C. (250 rpm). At OD600=0.3 of the culture was supplemented with 2% L-arabinose, 2 mL 1 M cysteine HCl (2 mM), […] iron (II) sulfate (1 mM), and […] ferric ammonium sulfate (1 mM) then returned to incubation. After 1 hour the culture was induced using 0.1 mM IPTG, incubated for 3 hours, pelleted at 8,000×g (10 minutes, 4° C.), and stored at −80° C. until analysis. A portion of the cell pellet was lysed as described above and the presence of ComF and Tpa was confirmed by immunoblotting using a 8-16% polyacrylamide gel with the initial electrophoresis changed to 50 V (25 minutes) followed by 100 V (105 minutes) and transferred using constant 0.11 A (50 minutes). […] Samples were aspirated into a luer slip tip syringe and filtered through a 0.2 μm, 13 mm diameter polyethersulfone (PES) membrane into fresh amber autosampler vials then stored at 4° C. in the dark until analyzed by high-performance liquid chromatography (HPLC) using an UltiMate 3000 (Thermo Scientific, Waltham, MA). […]

O=S(=O)(O)CCS [CoM, 2-mercaptoethanesulfonate]
lag time ([1]; +CoM, 65 μM CuHO2): 4.7 h | CuHO2 mitigated ([1]; comparison of lag times): ~20 µM | lag time ([1]; preincubated with CoM, 75 μM cumene): 3.5 h | growth when plated with 2 mM [2]: no growth defects | CuHO2 concentration giving the same lag time in −CoM culture ([3]; +CoM at 65 μM CuHO2, regression): ~50 µM and 49.73 µM | lag time ([3]; +CoM, 65 μM CuHO2): 6.0 h | lag time predicted by exponential regression ([3]; +CoM, 65 μM CuHO2): 6.313 h | CuHO2 mitigated ([3]; from regression of lag times): ~15 µM | lag time ([3]; preincubated with 100 μM CoM (+CoM), 75 μM cumene negative control, time to OD600=0.1): 3.0 h

N[C@@H](CS)C(=O)O [Cys, cysteine]
growth when plated with 2 mM [2]: no growth defects

NCCS(=O)(=O)O [taurine]
zone of clearing of Empty Vector strain [4]: increase in the average zone of clearing size | lag time of vector-only control cells [5]: lag time increased | lag time of vector-only control cells ([5]; listed as SC): increases | growth when plated with 2 mM [2]: Inhibitory growth | growth with the substance as sulfur source ([2]; M9 (—S) agar plates, 100 μM): grew poorly

B1: MA3299: coenzyme M synthase (ComF) of Methanosarcina acetivorans, SEQ ID NO: 1 (protein)
chain: MNGALDNTEKPRTIQEIQVKIDAGEAVVLTAEEIGAKVRAGGEIRLEDIDVVTTATRGIMSGTYAVFSFKVSEPDSFVKASKVLLNGVPAIVGPCPNERLGVLDLIVLGTAHSETDSRYGGGHLFRDMVEGKSITVDVTTSVGDFFSVETRLSEMPFARLYATRHAFKNYRAFVNPGKESIKTIFHALPFEGEFRELTFCGCGELNPIQNDPKLETIGIGTRVLINGAEGFVTGQGTRSAPDNPNLTGFADLHDMTPEYMGGFVTSAGPEIVNTWAVPIPVLSREMLENILQLDSQIPLKLVDLAGRLPLCEITYGDVWDNTDLSVKYEPEKCIDCKICCVAEACPMGAVSKGENGAVHNPELCFNCGLCISRCKGEAFSAKLGTVSCAVGGCFRDIKVTLRQSDRARAVKAAEELKAQVLSGKFRLKEPVEKISWRE
modifications: Methanosarcina acetivorans
reduction of enzymatic activity ([6]; lysate removed from the anaerobic chamber for centrifugation): ~60%

B2: Q9APM5: taurine-pyruvate aminotransferase from Bilophila wadsworthia, SEQ ID NO: 3 (protein, listed as Bilophila wadsworthia)
chain: MTYDKAELVALDKKYVWHHLTQHKNFEPAIYVKGEGMRITDIDGKTYLDAVSGGVWTVNVGYGRKEIVDAVAKQMMEMCYFANGIGNVPTIKFSEKLISKMPGMSRVYLSNSGSEANEKAFKIVRQIGQLKHGGKKTGILYRARDYHGTTIGTLSACGQFERKVQYGPFAPGFYEFPDCDVYRSKFGDCADLGVKMAKQLEEVILTVGPDELGAVIVEPMTAGGGILVPPAGYYETIREICDKYELLLIIDEVVCGLGRTGKWFGYQHFNVQPDIVTMAKGVASGYAPISCTVTTEKVFQDFVNDPADTDAYFRDISTFGGCTSGPAAALANIEIIERENLLENCTKMGDRLLEGLKGLMAKHPIIGDVRGKGLFAGIEIVKDRATKEPIAEAVANAMVGAAKQAGVLIGKTSRSFREFNNTLTLCPALIATEADIDEIVAGIDKAFTTVEQKFGL
catalysis ([6]; enzyme alone): Catalysis was not observed
